Source: patent US12427188B2, “Pyocyanine demethylases and related phenazine degrading agents compositions, methods and systems for interfering with viability of bacteria” (priority 2020, dated 2025)
Read-outs that look alike come from different tables or passages of the source.

Experiments:
[1] = Redox potential E0' vs. NHE of redox-active compounds; type: physicochemical; conditions: measured in aqueous solution at pH 7 in this study (footnote b)
[2] = tested on: PA14; test: Redox cycling, reduction by and survival support of PA14; type: cell-based, P. aeruginosa
[3] = oxidized form; literature values (footnotes a, c, d, e); cited from earlier work
[4] = tested on: Pseudomonas aeruginosa aggregate biofilms; test: PodA and tobramycin agar block biofilm assay (ABBA) synergy experiments; type: cell-based; conditions: for peak PI intensity: PodA10 5 μM, tobramycin 50 μg mL^−1
Description: Pseudomonas aeruginosa PodA and tobramycin agar block biofilm assay (ABBA) synergy experiments. Starter Pseudomonas aeruginosa cultures were grown 24 h at 37° C. shaking in LB and the OD500 was determined by diluting cells 1:10. For inoculation into agar, cells were first diluted to an OD of 1.0, followed by a 1:10 dilution for a final OD of 0.1. Molten LB agar (1% w/v) or SCFM agar (1% w/v, made by mixing premade 2× SCFM and 2% agar) was incubated at 44° C., after which 10 μL of OD 0.1 culture was added and mixed into 1 mL of agar, for a final starting OD of 0.001. A portion of the mixture (200 μL) was pipetted into a well of an 8-well glass chamber slide for microscopy (Thermo Fisher Scientific #155409) or into a 2 mL Eppendorf tube for cell viability experiments. ABBAs were incubated at 37° C. for 24 h in a Tupperware lined with wet paper towels. Following growth, ABBAs were washed with 200 μL of HEPES (20 mM, pH 7) to rid planktonic cells growing on the surface of the agar. Treatment stocks (100 μL each) were made by diluting PodA10 and/or tobramycin into HEPES (final concentration of 20 mM, pH 7), with the no treatment control consisting of solely HEPES. Final concentrations of PodA (5 μM) and tobramycin (50 ug mL^−1) were calculated accounting for the total volume of the agar+liquid. ABBAs were treated overnight (14 h), treatment mixture was decanted, and agar blocks were washed with HEPES (400 μL).
For microscopy experiments, cells were incubated for 30 min with 125 μL of diluted propidium iodide (final concentration of 490 μM when added to ABBA, taking into account volume of the agar) and SYTO-9 (final concentration of 16 μM), after which 50 μL of a 1:50 dilution of 5-μm fluorescent beads (Spherotech; CFP-5045-2) was added to each agar block. ABBAs were imaged with a Leica TCS SPE confocal microscope as described elsewhere using 512×512-pixel format (29)[44], with the exception of imaging with a 6 μm step-size in the Z-direction.
For cell viability experiments, 300 μL of HEPES (20 mM, pH 7) was pipetted into each Eppendorf ABBA tube and samples were homogenized on speed 3 of a Bio-Gen PRO200 Homogenizer (PRO Scientific). Samples were briefly spun to rid of air bubbles (<1,000×g) and diluted in series and plated as described above in liquid synergy experiments. Experiments were completed with biological triplicates and was repeated thrice, with a representative figure shown.
ABBA microscopy image analysis. Images were analyzed in FIJI by re-slicing the data set in the XZ dimension followed by a max-intensity Z-projection. The brightness/contrast was auto-normalized in FIJI to the sample treated with only tobramycin. These LUT values were then applied to the other images in the corresponding data sets. Average pixel intensities along the Z-dimensions were found using the “Plot Profile” function in FIJI.
To determine mean pixel intensity and aggregate volume of each ABBA, channels 1 (SYTO-9) and 2 (Propidium Iodide) were combined into a single channel using FIJI. Images were analyzed in Imaris and aggregate masks were created using the “surface” module of the software. Using the surface Imaris wizard, all options under algorithm settings were unchecked. For surface channel settings, channel 3 (representing combined channels) was chosen and default settings were maintained. For threshold settings, the no treatment ABBA sample was analyzed for proper data inclusion and a value of 60 was used for all LB samples, with a threshold value of 40 for all SCFM samples. Lastly, data were excluded 0.1 μm from the XY edges, to exclude aggregates that were cut off due to imaging field. Data were not excluded from the top edge of the ABBA, as images were collected from the surface of the agar using fluorescent beads as described above. Exported statistics were used to plot aggregate volume or mean PI intensity against position of aggregates in the Z-dimension. […]

[5] = copper chelating agent; cited from earlier work

CN(C)c1ccc2nc3ccc(=[N+](C)C)cc-3sc2c1 [Methylene blue (MB), Methylene blue]
E^0, (vs. NHE) (mV) [1]: 0 mV | Reduction by PA14? [2]: Yes | Support survival? [2]: No | # of Redox cycles over 7 days [2]: 3 | E^0, (vs. NHE) (mV) [3]: +11 mV

O=C1c2ccc(S(=O)(=O)O)cc2C(=O)c2ccc(S(=O)(=O)O)cc21 [2,6-AQDS]
Reduction by PA14? [2]: Yes (very slowly) | Support survival? [2]: No | # of Redox cycles over 7 days [2]: No cycle | E^0, (vs. NHE) (mV) [3]: −184 ^d mV

C[n+]1ccc(-c2cc[n+](C)cc2)cc1 [Paraquat]
Reduction by PA14? [2]: No | Support survival? [2]: No | # of Redox cycles over 7 days [2]: No cycle | E^0, (vs. NHE) (mV) [3]: −446^e mV

NC[C@H]1O[C@H](O[C@H]2[C@H](O)[C@@H](O[C@H]3O[C@H](CO)[C@@H](O)[C@H](N)[C@H]3O)[C@H](N)C[C@@H]2N)[C@H](N)C[C@@H]1O [tobramycin]
PI staining versus non-treated samples ([4]; LB ABBA, hypoxia/anoxia from around 300 μm): no significant differences | peak PI intensity ([4]; LB): 151.0 AUs | PI staining versus no treatment controls ([4]; SCFM ABBA, all depths): considerably higher than no treatment controls at all depths | peak PI intensity ([4]; SCFM): 22.6 AUs

C[n+]1c2ccccc2nc2c([O-])cccc21 [Pyocyanin (PYO), Pyocyanin]
Reduction by PA14? [2]: Yes | Support survival? [2]: Yes | # of Redox cycles over 7 days [2]: 31 | E^0, (vs. NHE) (mV) [3]: −40^a mV

O=C(O)c1cccc2nc3ccccc3nc12 [Phenazine-1-carboxylate (PCA), Phenazine-1-carboxylate]
Reduction by PA14? [2]: Yes | Support survival? [2]: Yes | # of Redox cycles over 7 days [2]: 22 | E^0, (vs. NHE) (mV) [3]: −114 ^a mV

Oc1cccc2nc3ccccc3nc12 [1-Hydroxyphenazine (1-OHPHZ), 1-Hydroxyphenazine]
Reduction by PA14? [2]: Yes | Support survival? [2]: Yes | # of Redox cycles over 7 days [2]: 14 | E^0, (vs. NHE) (mV) [3]: −174 ^a mV | log of the equilibrium constant βmlh of binding copper [5]: 8.68

O=C(O)Cc1cc(O)ccc1O [Homogentisic acid (HMA), Homogentisic acid]
E^0, (vs. NHE) (mV) [1]: +306^b mV | Support survival? [2]: No | # of Redox cycles over 7 days [2]: No cycle

B1: PodA: Pyocyanin demethylase of M. fortuitum, SEQ ID NO: 1; in the ABBA experiments the PodA added was PodA10 (protein, listed as Mycobacterium fortuitum)
chain: MTGKTKPAIIGGVAITALAAAGLGVWLFTDGRGGRSTTEPVTMTLDVKNDQVAKHDFGKPGMDVGDMDIFSDILSVDGKQVGYDGGACFFTNVTPDNPMTYCELTIHLDAGEIFARSLTPHTLAPFTMAITGGTGEYANSKGELTVSGVATPDEKYELKLTK
outside ring PI staining pattern of aggregates ([4]; LB, XY-plane, versus untreated aggregates): abolished | PI staining at depth ([4]; PodA alone, >300 μm in LB (anoxic zone)): did not significantly change
